Measurements from patent US11932654B2, “Nimbolide analogs as anti-cancer agents and preparation thereof” (priority 2018, dated 2024).
pIC50: −log10 of the molar value. Values belong to the compound of their own block, whether it stands above or below them.

What was measured:
Format in all cases: cell-based
[1] = test system: PC3 prostate cancer cell line; assay: In vitro anticancer activity, SRB assay, PC3; details: 48 h, NA = Not Active
Procedure: (§1) Cell culture: Human lung adenocarcinoma cell line (A549 cell line), pancreatic cancer cell line (Panc-1, Pan-02), prostate cancer cell line (DU145, PC3), Brest cancer cell line (MCF-7) was grown in DIEM (Dulbecco's modifications of eagle's medium with L-glutamine & 4.5 g/L glucose) supplemented with fetal bovine serum in a humidified atmosphere of a 5% CO2 at 37° C.
(§2) In vitro anticancer activity: Cells were harvested from exponential phase cultures by trypsinization, counted and plated in 96-well plate. Optimal seeding densities for different cell lines in each plate were 5000 cells per well. After 24 h cells were treated with \ the newly synthesized compound at a dose range of 0.1-100 μm final concentration. Thereafter, cells were allowed to grow for 48 h before determination of cell survival by the SRB assay. Then the cells were fixed with 10% cold trichloroacetic acid for 1 h at 4° C. After two washes with deionized water, fixed cells were stained with 50 μL of SRB solution (1% in acetic acid) for 30 min and subsequently washed twice with 1% acetic acid to remove unbound stain. The plates were left to dry at room temperature and bound stain was solubilized with 100 μL of 10 mM buffered Tris base for reading the […] at 540 nm.

[2] = test system: MCF-7 breast cancer cell line; assay: In vitro anticancer activity, SRB assay, MCF-7; details: Homo sapiens, MCF7, 48 h, NA = Not Active
Procedure: as §1, §2

[3] = test system: Panc-1 pancreatic cancer cell line; assay: In vitro anticancer activity, SRB assay, Panc-1; details: Homo sapiens, 48 h, NA = Not Active
Procedure: as §1, §2

[4] = test system: A549 lung adenocarcinoma cell line; assay: In vitro anticancer activity, SRB assay, A549; details: Homo sapiens, 48 h, NA = Not Active
Procedure: as §1, §2

[5] = test system: DU-145 prostate cancer cell line; assay: In vitro anticancer activity, SRB assay, DU-145; details: Homo sapiens, 48 h, NA = Not Active
Procedure: as §1, §2

pIC50 [1]: 4.10
pIC50 [5]: 4.12
pIC50 [2]: 4.49
pIC50 [3]: 4.48
pIC50 [4]: 4.17
SMILES: COC(=O)C[C@H]1[C@]2(C)C3=C(C)[C@H](c4ccoc4)C[C@@H]3O[C@@H]2[C@@H]2OC(=O)[C@]3(C)CCC(=O)[C@@]1(C)C23 (stereo partly shown) [A6]

pIC50 [1]: 6.00
pIC50 [5]: 5.84
pIC50 [2]: 5.33
pIC50 [3]: 5.06
pIC50 [4]: 4.88
SMILES: COC(=O)C[C@H]1[C@]2(C)C3=C(C)[C@H](c4ccoc4)C[C@@H]3O[C@@H]2[C@@H]2OC(=O)[C@]3(C)C(OCc4ccccc4)CC(=O)[C@@]1(C)C23 (stereo partly shown) [A2]

The next lines start with the compound.

SMILES: COC(=O)C[C@H]1[C@]2(C)C3=C(C)[C@H](c4ccoc4)C[C@@H]3O[C@@H]2[C@@H]2OC(=O)[C@]3(C)C(Nc4ccccc4)CC(=O)[C@@]1(C)C23 (stereo partly shown) [A8]
pIC50 [1]: 4.68
pIC50 [2]: 4.25
pIC50 [3]: 4.07
pIC50 [4]: 4.05

SMILES: COC(=O)C[C@H]1[C@]2(C)C3=C(C)[C@H](c4ccoc4)C[C@@H]3O[C@@H]2[C@@H]2OC(=O)[C@]3(C)C4CC4C(=O)[C@@]1(C)C23 (stereo partly shown) [A5]
pIC50 [1]: 4.69
pIC50 [5]: 5.10
pIC50 [2]: 4.77
pIC50 [3]: 5.98
pIC50 [4]: 4.22

SMILES: COC(=O)C[C@H]1[C@]2(C)C3=C(C)[C@H](c4ccoc4)C[C@@H]3O[C@@H]2[C@@H]2OC(=O)[C@]3(C)C(Sc4cccc(N)c4)CC(=O)[C@@]1(C)C23 (stereo partly shown) [A7]
pIC50 [1]: 4.18
pIC50 [2]: 4.28
pIC50 [3]: 4.73
pIC50 [4]: 4.62

SMILES: COC(=O)C[C@H]1[C@]2(C)C3=C(C)[C@H](c4ccoc4)C[C@@H]3O[C@@H]2[C@@H]2OC(=O)[C@]3(C)C(C(O)c4ccc([N+](=O)[O-])cc4)=CC(=O)[C@@]1(C)C23 (stereo partly shown) [A3]
pIC50 [1]: 5.04
pIC50 [5]: 5.03
pIC50 [2]: 5.32
pIC50 [3]: 5.11
pIC50 [4]: 4.91
